# According to patent publication US8455397B2, “Penoxsulam as a turfgrass, vineyard and orchard floor herbicide” (Dow AgroSciences, LLC, priority 2005, dated 2013):
# Experiments:
# barnyardgrass (ECHCG) = test: Pre-emergence weed nursery field study; format: in vivo, Echinochloa crus-galli; details: weed nursery in the field, 27 Days After Application
# Protocol: (§1) Field studies were conducted in a non-fumigated weed nursery trial. Weed species were planted in single strips with a row planter at 36 centimeter spacing. Plot size was 3.05×9.2 meters, 4 replicate plots per treatment. Weed species were seeded at appropriate depths and later the same day pre-emergent applications were made to the soil surface. Liquid applications were made using a backpack sprayer calibrated to deliver 187 liters per hectare (L/ha). Applications were made in Fresno, Calif. in June. Sprinkler irrigation was applied at regular intervals throughout study period. Control of each weed species in the study site was made 4 weeks after treatment. Control was determined visually by comparing treated and untreated weeds and scored on a 0 to 100 percent scale where 0 corresponds to no control and 100 corresponds to complete kill or no emergence.
# white clover (TRFRE) = test: Postemergent granule herbicides, turfgrass field studies; format: in vivo, Trifolium repens L.
# Protocol: Field studies were conducted in established turfgrass sites containing a natural population of target broadleaf weeds. Replicated trials, containing a minimum of three replications and having individual plots ranging in size from 25 to 50 ft. sq (2.3 to 4.6 square meters), were initiated in the late spring when turf and weeds were actively growing. Granule treatments were uniformly applied to individual plots using a common hand-shaker method. Applications were made in the early morning when dew was present. Natural rainfall and supplemental irrigation were used to maintain healthy turf and active weed growth throughout the study period. Control of each weed species in the study site was made at 2, 4 and 8 weeks after treatment. Control was determined visually by comparing treated and untreated weeds and scored on a 0 to 100 percent scale where 0 corresponds to no control and 100 corresponds to complete kill.
# little mallow (MALPA) = test: Pre-emergence orchard floor weeds, greenhouse study; format: in vivo, Malva parviflora; details: 28 Days After Application
# Protocol: Greenhouse studies were conducted by seeding species in a loam soil and applying the herbicides to the soil surface using a Cornwall 5 milliliter glass syringe fitted with a TeeJet TN-3 nozzle on an area basis Immediately following herbicide application the pots were irrigated over the top to move the herbicides into the seeding zone. Pots were kept well irrigated throughout the trial. A percent visual weed control assessment was taken 4 weeks after application. Control was determined visually by comparing treated and untreated pots and scored on a 0 to 100 percent scale where 0 corresponds to no control and 100 corresponds to complete kill, or no emergence.
# [1] = system: broadleaf plantain (PLAMA); test: Granule carrier/particle size, post emergence greenhouse study; format: in vivo, Plantago major L.; details: postemergent greenhouse
# Protocol: (§2) Greenhouse and field studies evaluated the effect of two granule carriers and two particles sizes on the postemergent broadleaf activity of penoxsulam. The two carriers were a 46-0-0 and 28-4-12 fertilizer blend and the particle sizes averaged 0.75 mm and 2.15 mm.
# (§3) Greenhouse studies were applied both post and pre-emergence to broadleaf weeds and sedge reared from seed or nutlet in 12.7″ (32.25 cm) by 8.8″ (22.35 cm) flats of a loam soil. Particle size and carrier were evaluated post emergence, carrier comparisons with the smaller particle size of 0.75 was evaluated pre-emergence. Stage of growth of species at post emergence application: PLAMA and TAROF in the 3 to 5 leaf stage, TRFRE in the 3rd tri-foliate stage and CYPES in the 3 to 4 leaf stage. Post emergence trial design was a replicated block, one species per flat, 3 replicate flats per treatment. Granule treatments were uniformly applied to individual flats on an area basis using a common hand-shaker method. Post emergence applications were made to the flat covering both soil and misted foliage. Trial was sub-irrigated daily, and watered over the top 1 time per week starting 7 days after application to simulate a natural rainfall event. Active weed growth was maintained throughout the study period. Weed control of each species in the post emergence study was assessed at 2, 3 and 4 weeks after treatment. Pre-emergence trial design was 2 species per flat, 4 replicate flats, block design. Pre-emergence applications were made to the soil surface using a common hand shaker method on an area basis. Overhead irrigation was maintained throughout the trial. Weed control of each species in the pre-emergence study was assessed at 2, 3, 4 and 5 weeks after application. Control was determined visually by comparing treated and untreated flats and scored on a 0 to 100 percent scale where 0 corresponds to no control and 100 corresponds to complete kill.
# dandelion (TAROF) = test: as above; format: in vivo, Taraxacum officinale; details: postemergent greenhouse
# Protocol: as §2, §3
# yellow nutsedge (CYPES) [2] = test: Pre-emergence weed nursery field study; format: in vivo, Cypres esculentus L.; details: weed nursery in the field, 27 Days After Application
# Protocol: as §1
# yellow nutsedge (CYPES) [3] = test: Granule carrier/particle size, post emergence greenhouse study; format: in vivo, Cypres esculentus L.; details: postemergent greenhouse
# Protocol: as §2, §3
# [4] = system: broadleaf plantain (PLAMA); test: Granule carrier comparison, pre-emergence greenhouse study; format: in vivo, Plantago major L.; details: pre-emergent greenhouse
# Protocol: as §2, §3
# [5] = carrier 28-4-12, particle size 0.75 mm, 5.6 gai/Ha
# [6] = carrier 28-4-12, particle size 0.75 mm, 11.2 gai/Ha
# [7] = carrier 28-4-12, particle size 0.75 mm, 22.4 gai/Ha
# [8] = carrier 28-4-12, particle size 2.15 mm, 5.6 gai/Ha
# [9] = carrier 28-4-12, particle size 2.15 mm, 11.2 gai/Ha
# [10] = carrier 28-4-12, particle size 2.15 mm, 22.4 gai/Ha
# [11] = carrier 46-0-0, particle size 0.75 mm, 5.6 gai/Ha
# [12] = carrier 46-0-0, particle size 0.75 mm, 11.2 gai/Ha
# [13] = carrier 46-0-0, particle size 0.75 mm, 22.4 gai/Ha
# [14] = carrier 46-0-0, particle size 2.15 mm, 5.6 gai/Ha
# [15] = carrier 46-0-0, particle size 2.15 mm, 11.2 gai/Ha
# [16] = carrier 46-0-0, particle size 2.15 mm, 22.4 gai/Ha
structure (smiles),measurement,setting,value
"COc1cnc(OC)n2nc(NS(=O)(=O)c3c(OCC(F)F)cccc3C(F)(F)F)nc12 [Penoxsulam, 2-(2,2-difluoroethoxy)-N-(5,8-dimethoxy[1,2,4]triazolo[1,5-c]-pyrimidin-2-yl)-6-(trifluoromethyl)benzenesulfonamide]",Pre-emergent Percent Mean Control,barnyardgrass (ECHCG); 8.8 gai/Ha,87%
same,Pre-emergent Percent Mean Control,barnyardgrass (ECHCG); 17.5 gai/Ha,96%
same,Pre-emergent Percent Mean Control,barnyardgrass (ECHCG); 35 gai/Ha,98%
same,Pre-emergent Percent Mean Control,barnyardgrass (ECHCG); 70 gai/Ha,100%
same,Mean Percent Weed Control,"white clover (TRFRE); Table I, 4 Weeks After Treatment, 8 sites, Penoxsulam 140 gai/Ha, Scotts Plus 2 1682+841 gae/Ha, Trimec 1121+516+112 gae/Ha",93%
same,Mean Percent Weed Control,"white clover (TRFRE); Table I, 8 Weeks After Treatment, 7 sites, Penoxsulam 140 gai/Ha, Scotts Plus 2 1682+841 gae/Ha, Trimec 1121+516+112 gae/Ha",94%
same,Mean Percent Weed Control,"white clover (TRFRE); Table III, 4 Weeks After Treatment, 22.4 gai/Ha, 8 sites",85%
same,Mean Percent Weed Control,"white clover (TRFRE); Table III, 4 Weeks After Treatment, 44.9 gai/Ha, 8 sites",94%
same,Mean Percent Weed Control,"white clover (TRFRE); Table III, 4 Weeks After Treatment, 67.3 gai/Ha, 8 sites",96%
same,Mean Percent Weed Control,"white clover (TRFRE); Table III, 4 Weeks After Treatment, 100 gai/Ha, 8 sites",96%
same,Mean Percent Weed Control,"white clover (TRFRE); Table III, 8 Weeks After Treatment, 22.4 gai/Ha, 8 sites",74%
same,Mean Percent Weed Control,"white clover (TRFRE); Table III, 8 Weeks After Treatment, 44.9 gai/Ha, 8 sites",88%
same,Mean Percent Weed Control,"white clover (TRFRE); Table III, 8 Weeks After Treatment, 67.3 gai/Ha, 8 sites",91%
same,Mean Percent Weed Control,"white clover (TRFRE); Table III, 8 Weeks After Treatment, 100 gai/Ha, 8 sites",97%
same,Pre-emergent Percent Mean Control,little mallow (MALPA); 8.8 gai/Ha,74%
same,Pre-emergent Percent Mean Control,little mallow (MALPA); 17.5 gai/Ha,87%
same,Pre-emergent Percent Mean Control,little mallow (MALPA); 35 gai/Ha,93%
same,Pre-emergent Percent Mean Control,little mallow (MALPA); 70 gai/Ha,100%
same,Percent Weed Control 27-30 DAA,[1]; [5],35%
same,Percent Weed Control 27-30 DAA,[1]; [6],75%
same,Percent Weed Control 27-30 DAA,[1]; [7],96%
same,Percent Weed Control 27-30 DAA,[1]; [8],0%
same,Percent Weed Control 27-30 DAA,[1]; [9],27%
same,Percent Weed Control 27-30 DAA,[1]; [10],38%
same,Percent Weed Control 27-30 DAA,[1]; [11],47%
same,Percent Weed Control 27-30 DAA,[1]; [12],77%
same,Percent Weed Control 27-30 DAA,[1]; [13],97%
same,Percent Weed Control 27-30 DAA,[1]; [14],8%
same,Percent Weed Control 27-30 DAA,[1]; [15],15%
same,Percent Weed Control 27-30 DAA,[1]; [16],50%
same,Percent Weed Control 27-30 DAA,dandelion (TAROF); [5],50%
same,Percent Weed Control 27-30 DAA,dandelion (TAROF); [6],88%
same,Percent Weed Control 27-30 DAA,dandelion (TAROF); [7],97%
same,Percent Weed Control 27-30 DAA,dandelion (TAROF); [8],23%
same,Percent Weed Control 27-30 DAA,dandelion (TAROF); [9],60%
same,Percent Weed Control 27-30 DAA,dandelion (TAROF); [10],68%
same,Percent Weed Control 27-30 DAA,dandelion (TAROF); [11],55%
same,Percent Weed Control 27-30 DAA,dandelion (TAROF); [12],67%
same,Percent Weed Control 27-30 DAA,dandelion (TAROF); [13],98%
same,Percent Weed Control 27-30 DAA,dandelion (TAROF); [14],23%
same,Percent Weed Control 27-30 DAA,dandelion (TAROF); [15],48%
same,Percent Weed Control 27-30 DAA,dandelion (TAROF); [16],60%
same,Pre-emergent Percent Mean Control,yellow nutsedge (CYPES) [2]; 8.8 gai/Ha,69%
same,Pre-emergent Percent Mean Control,yellow nutsedge (CYPES) [2]; 17.5 gai/Ha,81%
same,Pre-emergent Percent Mean Control,yellow nutsedge (CYPES) [2]; 35 gai/Ha,88%
same,Pre-emergent Percent Mean Control,yellow nutsedge (CYPES) [2]; 70 gai/Ha,94%
same,Percent Weed Control 27-30 DAA,yellow nutsedge (CYPES) [3]; [5],18%
same,Percent Weed Control 27-30 DAA,yellow nutsedge (CYPES) [3]; [6],37%
same,Percent Weed Control 27-30 DAA,yellow nutsedge (CYPES) [3]; [7],60%
same,Percent Weed Control 27-30 DAA,yellow nutsedge (CYPES) [3]; [8],37%
same,Percent Weed Control 27-30 DAA,yellow nutsedge (CYPES) [3]; [9],25%
same,Percent Weed Control 27-30 DAA,yellow nutsedge (CYPES) [3]; [10],35%
same,Percent Weed Control 27-30 DAA,yellow nutsedge (CYPES) [3]; [11],18%
same,Percent Weed Control 27-30 DAA,yellow nutsedge (CYPES) [3]; [12],30%
same,Percent Weed Control 27-30 DAA,yellow nutsedge (CYPES) [3]; [13],65%
same,Percent Weed Control 27-30 DAA,yellow nutsedge (CYPES) [3]; [14],3%
same,Percent Weed Control 27-30 DAA,yellow nutsedge (CYPES) [3]; [15],20%
same,Percent Weed Control 27-30 DAA,yellow nutsedge (CYPES) [3]; [16],42%
same,Percent Weed Control 35 DAA,[4]; [5],72%
same,Percent Weed Control 35 DAA,[4]; [6],82%
same,Percent Weed Control 35 DAA,[4]; [7],100%
same,Percent Weed Control 35 DAA,[4]; [11],76%
same,Percent Weed Control 35 DAA,[4]; [12],87%
same,Percent Weed Control 35 DAA,[4]; [13],94%
